Results as given in PubChem BioAssay AID330 (DTP/NCI, 2004).
Several values for one entry are separate records, joined by “and”; a condition that tells them apart may be missing. Equal entries are not always repeated. Inconclusive results and toxic doses are left out. How the source made its calls: active means survival T/C of 150% or more; inactive means T/C below 125% in these data.

Test system: P388 leukemia ip, CD2F1 mice, survival T/C
Assay: NCI In Vivo Anticancer Drug Screen. Data for tumor model P388 Leukemia (intraperitoneal) in CD2F1 (CDF1) mice
Details: endpoint: median survival time, higher = longer survival
How it was run: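 Mice carrying the transplanted tumor received test compound or vehicle. Survival was recorded in each group, and the value is the treated-group measurement divided by that of the vehicle-treated control group.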

[1] = dose: 50.0 mg/kg/injection, schedule: Q01DX005 (ip), vehicle: saline
[2] = dose: 100.0 mg/kg/injection, schedule: Q01DX005 (ip), vehicle: saline
[3] = dose: 200.0 mg/kg/injection, schedule: Q01DX005 (ip), vehicle: saline
[4] = dose: 60.0 mg/kg/injection, schedule: Q01DX005 (ip), vehicle: saline with Tween-80
[5] = dose: 120.0 mg/kg/injection, schedule: Q01DX005 (ip), vehicle: saline with Tween-80
[6] = dose: 12.5 mg/kg/injection, schedule: Q01DX005 (ip), vehicle: Klucel (hydroxypropylcellulose) (HPC)
[7] = dose: 25.0 mg/kg/injection, schedule: Q01DX005 (ip), vehicle: Klucel (hydroxypropylcellulose) (HPC)
[8] = dose: 50.0 mg/kg/injection, schedule: Q01DX005 (ip), vehicle: Klucel (hydroxypropylcellulose) (HPC)
[9] = dose: 100.0 mg/kg/injection, schedule: Q01DX005 (ip), vehicle: Klucel (hydroxypropylcellulose) (HPC)
[10] = dose: 12.5 mg/kg/injection, schedule: Q01DX009 (ip), vehicle: saline
[11] = dose: 25.0 mg/kg/injection, schedule: Q01DX009 (ip), vehicle: saline
[12] = dose: 200.0 mg/kg/injection, schedule: Q01DX005 (ip), vehicle: Klucel (hydroxypropylcellulose) (HPC)

Measured: T/C

NCC(=O)NC(CCCN=C(N)N)C(=O)O (stereo not drawn)
inactive: [1] 96 % of control | [2] 99 % of control | [3] 99 % of control

CC(C)(Br)C(C)(C)OO
inactive: dose: 18.75 mg/kg/injection, schedule: Q04DX003 (ip), vehicle: Klucel (hydroxypropylcellulose) (HPC) 104 % of control | dose: 37.5 mg/kg/injection, schedule: Q04DX003 (ip), vehicle: Klucel (hydroxypropylcellulose) (HPC) 112 % of control | dose: 75.0 mg/kg/injection, schedule: Q04DX003 (ip), vehicle: Klucel (hydroxypropylcellulose) (HPC) 104 % of control

C[Si](C)(C)CCCNCCNCCC[Si](C)(C)C
inactive: [4] 100 % of control | [5] 100 % of control

CCN(CC)CCCC(C)N=C(Nc1ccccc1)c1ccc(Cl)cc1 (stereo not drawn)
inactive: [1] 104 % of control | [2] 102 % of control

CC1(C)CCC2(C(=O)OC3OC(CO)C(O)C(O)C3O)CCC3(C)C(=CCC4C5(C)CCC(OC6OC(CO)C(O)C(OC7OC(CO)C(O)C(O)C7O)C6O)C(C)(C)C5CCC43C)C2C1 (stereo not drawn)
inactive: dose: 6.25 mg/kg/injection, schedule: Q01DX005 (ip), vehicle: Klucel (hydroxypropylcellulose) (HPC) 102 % of control | [6] 98 % of control | [7] 116 % of control | [8] 105 % of control

CN(C)c1ccc2c(SCC(=O)OCC(=O)C3(O)CCC4C5CCC6=CC(=O)C=CC6(C)C5C(O)CC43C)c3ccc(N(C)C)cc3nc2c1 (stereo not drawn)
inactive: [6] 98 % of control and 97 % of control | [7] 111 % of control and 93 % of control | [8] 123 % of control and 96 % of control | [9] 118 % of control and 122 % of control

O=C(CCCN1CCN(c2cc3ccccc3cn2)CC1)c1ccc(F)cc1
inactive: [6] 109 % of control | [7] 109 % of control | [8] 110 % of control and 115 % of control

O=C1c2ccccc2C(=O)N1CC(O)COCc1ccccc1 (stereo not drawn)
inactive: dose: 50.0 mg/kg/injection, schedule: Q01DX005 (ip), vehicle: saline with Tween-80 102 % of control | dose: 100.0 mg/kg/injection, schedule: Q01DX005 (ip), vehicle: saline with Tween-80 98 % of control | dose: 200.0 mg/kg/injection, schedule: Q01DX005 (ip), vehicle: saline with Tween-80 100 % of control

CN1C2=CC3(OC2C(C)(C)c2ccccc21)N(C)c1ccccc1C3(C)C (stereo not drawn)
inactive: dose: 60.0 mg/kg/injection, schedule: Q01DX005 (ip), vehicle: Klucel (hydroxypropylcellulose) (HPC) 93 % of control | dose: 120.0 mg/kg/injection, schedule: Q01DX005 (ip), vehicle: Klucel (hydroxypropylcellulose) (HPC) 92 % of control | dose: 240.0 mg/kg/injection, schedule: Q01DX005 (ip), vehicle: Klucel (hydroxypropylcellulose) (HPC) 93 % of control

CCN1C=C/C(=C\C=C/c2cc[n+](CC)c3ccccc23)c2ccccc21
inactive: dose: 0.15 mg/kg/injection, schedule: Q04DX003 (ip), vehicle: saline 118 % of control | dose: 0.22 mg/kg/injection, schedule: Q04DX003 (ip), vehicle: saline 118 % of control | dose: 0.33 mg/kg/injection, schedule: Q04DX003 (ip), vehicle: saline 122 % of control

CCNC1CCC(Nc2ccnc3cc(Cl)ccc23)CC1 (stereo not drawn)
inactive: [8] 95 % of control | [9] 87 % of control

CC(NC(=O)C1CCCN1C(=O)OC(C)(C)C)C(=O)OCc1ccccc1 (stereo not drawn)
inactive: dose: 50.0 mg/kg/injection, schedule: Q01DX005 (ip), vehicle: saline + Tween-80 + alcohol 98 % of control | dose: 100.0 mg/kg/injection, schedule: Q01DX005 (ip), vehicle: saline + Tween-80 + alcohol 98 % of control | dose: 200.0 mg/kg/injection, schedule: Q01DX005 (ip), vehicle: saline + Tween-80 + alcohol 99 % of control

c1ccc(CSc2ncnc3nc[nH]c23)cc1
inactive: dose: 12.5 mg/kg/injection, schedule: Q01DX010 (ip), vehicle: saline 100 % of control | dose: 25.0 mg/kg/injection, schedule: Q01DX010 (ip), vehicle: saline 100 % of control | dose: 50.0 mg/kg/injection, schedule: Q01DX010 (ip), vehicle: saline 90 % of control | dose: 100.0 mg/kg/injection, schedule: Q01DX010 (ip), vehicle: saline 90 % of control

Cc1ccc2c(c1)=N/C(=N\c1nc(O)c(O)[nH]1)N=2
inactive: dose: 60.0 mg/kg/injection, schedule: Q01DX009 (ip), vehicle: saline with Tween-80 106 % of control | dose: 100.0 mg/kg/injection, schedule: Q01DX009 (ip), vehicle: saline with Tween-80 106 % of control | dose: 140.0 mg/kg/injection, schedule: Q01DX009 (ip), vehicle: saline with Tween-80 109 % of control | dose: 210.0 mg/kg/injection, schedule: Q01DX009 (ip), vehicle: saline with Tween-80 111 % of control

Oc1c(CNCCCN2CCCC2)cc(Cl)c2cccnc12
inactive: [10] 102 % of control and 107 % of control | [11] 91 % of control and 96 % of control | dose: 50.0 mg/kg/injection, schedule: Q01DX009 (ip), vehicle: saline 88 % of control and 95 % of control | dose: 100.0 mg/kg/injection, schedule: Q01DX009 (ip), vehicle: saline 110 % of control and 112 % of control

COc1cc2c(cc1OC)C(Cc1ccsc1)NCC2 (stereo not drawn)
inactive: dose: 50.0 mg/kg/injection, schedule: Q04DX002 (ip), vehicle: Klucel (hydroxypropylcellulose) (HPC) 102 % of control | dose: 100.0 mg/kg/injection, schedule: Q04DX002 (ip), vehicle: Klucel (hydroxypropylcellulose) (HPC) 100 % of control

O=C(CC1(O)C(=O)Nc2c(Cl)cccc21)c1cccs1 (stereo not drawn)
inactive: [8] 103 % of control | [9] 100 % of control | [12] 104 % of control

CCOC(=O)C1=C(C)O/C(=C/c2ccco2)C1=O
inactive: dose: 25.0 mg/kg/injection, schedule: Q01DX009 (ip), vehicle: Klucel (hydroxypropylcellulose) (HPC) 103 % of control | dose: 50.0 mg/kg/injection, schedule: Q01DX009 (ip), vehicle: Klucel (hydroxypropylcellulose) (HPC) 109 % of control | dose: 100.0 mg/kg/injection, schedule: Q01DX009 (ip), vehicle: Klucel (hydroxypropylcellulose) (HPC) 110 % of control and 111 % of control

O=S(=O)(O)O.[O]=[V]
inactive: dose: 6.25 mg/kg/injection, schedule: Q01DX009 (ip), vehicle: saline 90 % of control | [10] 86 % of control | dose: 12.5 mg/kg/injection, schedule: Q04DX003 (ip), vehicle: saline 100 % of control | [11] 90 % of control | dose: 25.0 mg/kg/injection, schedule: Q04DX003 (ip), vehicle: saline 100 % of control

CC(C)[C@]12O[C@H]1[C@@H]1O[C@]13[C@]1(O[C@H]1C[C@H]1C4=C(C(=O)OC4)[C@@H](O)C[C@@]13C)[C@@H]2O
inactive: dose: 0.03 mg/kg/injection, schedule: Q01DX009 (ip), vehicle: saline + alcohol 100 % of control and 101 % of control and 119 % of control | dose: 0.05 mg/kg/injection, schedule: Q01DX009 (ip), vehicle: saline + alcohol 117 % of control | dose: 0.06 mg/kg/injection, schedule: Q01DX005 (ip), vehicle: saline + alcohol 110 % of control | dose: 0.06 mg/kg/injection, schedule: Q01DX005 (iv), vehicle: saline + alcohol 107 % of control | dose: 0.06 mg/kg/injection, schedule: Q01DX009 (ip), vehicle: saline + alcohol 117 % of control | dose: 0.1 mg/kg/injection, schedule: Q01DX009 (ip), vehicle: saline + alcohol 124 % of control | dose: 0.13 mg/kg/injection, schedule: Q01DX005 (ip), vehicle: saline + alcohol 122 % of control | dose: 0.13 mg/kg/injection, schedule: Q01DX005 (iv), vehicle: saline + alcohol 108 % of control | dose: 0.25 mg/kg/injection, schedule: Q01DX005 (iv), vehicle: saline + alcohol 108 % of control | dose: 0.5 mg/kg/injection, schedule: Q01DX005 (iv), vehicle: saline + alcohol 116 % of control
active: dose: 0.25 mg/kg/injection, schedule: Q01DX009 (ip), vehicle: saline + alcohol 157 % of control and 158 % of control

CCn1c(=O)c2ncnnc2n(CC)c1=O
inactive: dose: 6.25 mg/kg/injection, schedule: Q01DX009 (ip), vehicle: Klucel (hydroxypropylcellulose) (HPC) 104 % of control | dose: 12.5 mg/kg/injection, schedule: Q01DX009 (ip), vehicle: Klucel (hydroxypropylcellulose) (HPC) 111 % of control

COC(=O)C(=O)c1c(C(=O)OC)nc2nnc(N)n2c1-c1ccc(Cl)c(Cl)c1
inactive: [4] 96 % of control | [5] 101 % of control | dose: 240.0 mg/kg/injection, schedule: Q01DX005 (ip), vehicle: saline with Tween-80 104 % of control

OCC1CC2CCCCN2O1 (stereo not drawn)
inactive: dose: 25.0 mg/kg/injection, schedule: Q01DX005 (ip), vehicle: saline 102 % of control | [1] 101 % of control | [2] 105 % of control | [3] 106 % of control

CC(=O)O[C@H]1CC[C@@]2(C)[C@@H](CC[C@@H]3[C@@H]2CC[C@]2(C)C(=NCCO)CC[C@@H]32)C1
inactive: [8] 108 % of control | [9] 105 % of control | [12] 99 % of control
